In general, IC50 refers to the concentration at which inhibition is half-maximal.

From patent EP4732907A1, “STYRYL BENZOTHIAZOLIUM SALTS AND ITS USES AGAINST PARASITIC INFECTIONS” (priority 2024, dated 2026) come the findings set out here.

What all share (format): cell-based
In experiment [1] the test system is L. major promastigotes (LucRE9). Kind of experiment: In vitro antileishmanial activity against Leishmania major promastigotes (MTT-based assay, 72 h). The note with it: Table 3; for IC50: Leishmania major, promastigotes, 72 h, MTT. Here is the method: Parasite culture: L. major promastigotes (LucRE9) were cultured at 28 °C in 5% CO2 in modified RPMI-1640 medium (Invitrogen, Carlsbad, CA) with 10% hiFBS.
The anti-leishmanial activity of the compounds was determined using MTT-based assay (Sigma-Aldrich) (Antimicrob Agents Chemother 2011, 55, 3838-3844). The stock solutions of the compounds were prepared in DMSO with a final DMSO percentage in each well maintained below 1%. 4 × 10^6 parasites per mL were incubated at 28 °C in 96-well plates (50 µL/well) either alone or in the presence of increasing concentration of compounds DMSO for 72 h. After the incubation period, 10 µL of MTT (5 mg/ml) was added to each well and parasites were incubated for 4 h at 28°C. Subsequently, cell lysis was performed using 50 µL/well of 20% SDS. The plate was then incubated at 37 °C for an additional hour and then absorbance was measured at a wavelength of 540 using an Infinite F200 plate reader (TECAN Austria, GmbH). The IC50 was calculated as described above. Data were presented as the average of at least three independent measurements, each conducted in triplicate conditions.
For orientation: Tetrazolium dyes change colour on reduction, which living cells bring about.

The next experiment has as its system MRC-5 cell line. Kind of experiment: Cytotoxicity assay in MRC-5 cell line (alamarBlue assay, 72 h). The note with it: Homo sapiens, MRC5, Table 3. (In general: Resazurin is reduced to fluorescent resorufin, in cell work by metabolically active cells.)
Experiment [2] deals with Bloodstream forms (BSF) of T. brucei brucei 'single marker' S427 (S16). In words: In vitro antitrypanosomal activity against Trypanosoma brucei (alamarBlue assay, 72 h). The settings on record: Table 3; IC50 MRC-5 / IC50 T.brucei. The source says:
Data were presented as the average of at least three independent measurements, each conducted in triplicate conditions.

Experiment [3] deals with THP1 cells (human monocytic cell line). In words: Cytotoxicity assay on PMA-differentiated THP1 (alamarBlue assay, 72 h). The note with it: THP-1, Table 4, PMA-differentiated THP1, 72 h. Here is the method:
Post-differentiation, the cells were washed and fresh medium was added (100 µL/well) before being reincubated. […] Data represent the average of three independent experiments, each conducted in triplicate.

Experiment [4] concerns Leishmania major amastigotes. In words: In vitro antileishmanial activity against Leishmania major amastigotes in THP1 cells (luciferase assay, 72 h). The note with it: Table 4. The method, then: The antiparasitic activity of the compounds against the intracellular form of Leishmania major was evaluated using the Luciferase Assay System kit from Promega. […] Post-differentiation, the cells were washed and fresh medium was added (100 µL/well) before being reincubated. […] The plates were then incubated at 35°C in 5% CO2. After 24 hours, the wells were washed three times with PBS, and fresh medium with increasing concentrations of compounds was added (100 µL/well). After another 72 hours of incubation, the cells were then treated with 25 µL of lysis buffer and stored at -80°C. Following 24 hours, 25 µL of luciferase enzyme substrate was added to each well, and the luciferase activity of the amastigotes was determined using a TECAN Infinite F200 microplate reader. […] Data represent the average of three independent experiments, each conducted in triplicate.

Protocol for MRC-5 cell line: Cell culture: Cell culture media were purchased from Gibco (Grand Island, NY, USA). Fetal bovine serum (FBS) was a product of Harlan-Seralab (Belton, U.K.). Supplements and other chemicals not listed in this section were obtained from Sigma Chemicals Co. (St. Louis, Mo., USA). Plastics for cell culture were supplied by Thermo Scientific™ BioLite. All tested compounds were dissolved in DMSO at a concentration of 10 mg/mL and stored at -20°C until use. Cell lines were maintained in Dulbecco's modified Eagle's medium (DMEM) containing glucose (1 g/L), glutamine (2 mM), penicillin (50 IU/mL), streptomycin (50 µg/mL) and amphotericin (1.25 µg/mL), supplemented with 10% FBS.
The stock solutions of the compounds were prepared in DMSO, with the final DMSO concentration in each well maintained below 1%. […] Subsequently, the compounds were added at various concentrations ranging from 0 to 100 µM, and the plates were incubated for 72 h. After the incubation period, 20 µL of resazurin solution (110 ng/ml) were added to each well and cells were incubated for 4 h. Then, cells were lysed with 50 µL/well of 3% SDS. The plate was incubated at 37 °C for an additional hour and subsequently, the fluorescence intensity was measure at the Infinite F200 plate reader (TECAN Austria, GmbH), exciting at 550 nm and recording the emission at 590 nm. […] Data are presented as the average of at least three independent measurements, each conducted in triplicate conditions.

Take `CN(C)c1ccc(/C=C/c2sc3ccccc3[n+]2C)cc1` [Compound 1, (E)-2-(4-(Dimethylamino)styryl)-3-methylbenzo[d]thiazol-3-ium iodide]: the half-inhibitory concentration (IC50) in experiment [1] was 0.02 ± 0.013 µM; with MRC-5 cell line it was 1.52 ± 0.37 µM.
Consider `C[n+]1c(/C=C/c2cc3c4c(c2)CCCN4CCC3)sc2ccccc21` [Compound 3], for which the concentration for half-maximal inhibition (IC50) in experiment [1] came out at 0.0065 ± 0.0029 µM; in the experiment with MRC-5 cell line it was 0.08 ± 0.03 µM.
As to `C[n+]1c(/C=C/c2ccc(N(c3ccccc3)c3ccccc3)cc2)sc2ccccc21` [Compound 2], in experiment [2], the “Selectivity Index (SI) T.brucei” value amounted to 15.1. For the same molecule, the IC50 in experiment [1] is 0.02 ± 0.011 µM; in experiment [3], 0.93 ± 0.02 µM; in experiment [4] (Leishmania major, THP-1, intracellular amastigotes in THP1 macrophages, 72 h, read-out: IC50 (uM) L. major), 0.0281 ± 0.00473 µM; in the experiment with MRC-5 cell line, 5.13 ± 0.76 µM. The “Selectivity Index (SI) L.major” value in experiment [1] (IC50 MRC-5 / IC50 L.major promastigotes) stood at 252.0. The “Selectivity Index (SI) MRC-5” value in experiment [4] (IC50 MRC-5 / IC50 L.major amastigotes) is reported as 182. In addition, in experiment [4] (IC50 THP-1 / IC50 L. major amastigotes), the “Selectivity Index (SI) THP-1” value is 33.
